Laboratory results: patent US9532988B2, “Pharmaceutical composition comprising a TRPA1 antagonist and an analgesic agent” (GLENMARK PHARMACEUTICALS S.A., priority 2013, dated 2017)
Where a name gives a salt, the structure may show the parent alone.

Tests used:
[1] = test system: MIA-osteoarthritis induced mechanical punctate allodynia in male SD rats; test: MIA-induced mechanical punctate allodynia (dynamic von Frey); assay type: in vivo, rat (Sprague-Dawley); conditions: naproxen 3 mg/kg p.o. alone; 0.5-4 h post-dose; Example 19, Table 22, FIG. 25
Protocol: MIA was dissolved in 0.9% sterile saline and administered using a 26½ gauge needle. Contralateral knees were injected intra-articularly with 50 μl of 0.9% sterile saline. On the day of the experiment (20 h after MIA injection), rats were evaluated for pre-dose mechanical punctate allodynia to assess the effect of MIA. After regrouping the rats after randomization, the pre- & post-dose mechanical allodynia was assessed for both hind paws. […] The % reversal of punctate allodynia was calculated as per standard procedure. Animals were weighed and grouped as described in Table 22.

[2] = test system: Freund's Complete Adjuvant (FCA)-induced inflammatory mechanical hyperalgesia in male SD rats; test: FCA-induced inflammatory mechanical hyperalgesia (Randall-Sellitto paw pressure);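 note: left hind paw withdrawal threshold (g) to rising pressure on an analgesymeter, FCA injected intraplantar 24 h earlier, thresholds taken before and 0.5, 1, 2 and 4 h after oral dosing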
Protocol: Materials: FCA containing 1 mg/ml of heat killed and dried Mycobacterium tuberculosis (H37RA strain) emulsified in mineral oil and mannide mono-oleate; Male SD rats weighing 170-220 g; Paw Pressure Analgesymeter (37215, Ugo Basile, Comerio, Italy); Compound I potassium; and Diclofenac sodium
Naïve withdrawal thresholds of the left hind paw to an increasing pressure (g) stimulus were measured in rats using the analgesymeter. FCA was injected (30 μl) into the plantar region of left paw of rats to induce the inflammatory hyperalgesia. Mechanical hyperalgesia (24 h after FCA injection) was assessed by measuring hind paw withdrawal thresholds.
The post-dose paw withdrawal thresholds were measured at 0.5, 1, 2 & 4 h after oral administration. The percentage (%) reversal of mechanical hyperalgesia was calculated as per standard procedure.
Naïve withdrawal thresholds of the left hind paw to an increasing pressure (g) stimulus were measured in rats using the analgesymeter. Freund's Complete Adjuvant (FCA) was injected (30 μl) into the plantar region of left paw of rats to induce the inflammatory hyperalgesia. Mechanical hyperalgesia (24 h after FCA injection) was assessed both pre- & post-dosing of drugs by measuring hind paw withdrawal thresholds. […] The post-dose paw withdrawal thresholds were measured at 0.5, 1, 2 & 4 h after oral administration. The % reversal of mechanical hyperalgesia was calculated.
Naïve withdrawal thresholds of the left hind paw to an increasing pressure (g) stimulus were measured in rats using the analgesymeter.

[3] = test system: Monosodium Iodo Acetate (MIA)-osteoarthritis induced weight bearing deficit in male SD rats; test: MIA-osteoarthritis induced weight bearing deficit (incapacitance meter); assay type: in vivo, rat (Sprague-Dawley); conditions: 0.5-4 h post-dose, Example 3, Table 5, FIG. 5
Protocol: After recording basal weight borne by both hind limbs (naïve) using the incapacitance meter (IITC Inc), rats were briefly anaesthetized with 2% isoflurane and O2 mixture and given intraarticular (i.a.) injection of MIA (5 mg per rat in […]) through the intrapatellar ligament of the left knee (Combe et al., 2004). MIA was dissolved in 0.9% sterile saline and administered using a 26½ gauge needle. Contralateral knees were injected intra-articularly with 50 μl of 0.9% sterile saline. Weight bearing deficit in ipsilateral paw was assessed 20 h post MIA injection by measuring weight borne by both hind limbs.
On the day of the experiment (20 h after MIA injection), rats were evaluated for pre-dose weight bearing deficit to assess the effect of MIA. After regrouping the rats after randomization, the pre- & post-dose weight bearing deficit, was assessed for both hind limbs. Rats were orally dosed with vehicle, naproxen, compound I potassium salt and combination (Naproxen+Compound I—simultaneously). The effect of compound I, naproxen and their combination, in MIA-osteoarthritis induced weight bearing deficit in male SD rats, was evaluated using Incapacitance meter (IITC Inc.) fitted with a perspex chamber designed so that each hind paw rat rests on separate transducer pads to record animal's weight on each paw. […] The % reversal of weight bearing deficit was calculated as per standard procedure. […]

[4] = test system: CCI-induced neuropathic hyperalgesia in male SD rats; test: Chronic constriction injury (CCI)-induced mechanical hyperalgesia; assay type: in vivo, rat (Sprague-Dawley); conditions: 0.5-4 h post-dose, Example 8, Table 11, FIG. 12
Protocol: The objective of this experiment was to study the combinational effect of Compound I and pregabalin in CCI-induced neuropathic hyperalgesia in male SD rats. Male SD rats weighing 180-220 g were grouped according to Table 11. Rats were anesthetized using ketamine/xylazine (40/5 mg/kg, i.p.) and the left sciatic nerve was exposed at mid-thigh level through a small incision. Four loose ligatures of 4-0 chromic cat gut at 1 mm space were placed around the sciatic nerve after the bifurcation of common sciatic nerve. After 6-7 days, mechanical hyperalgesia was assessed by measuring hind paw withdrawal thresholds to an increasing pressure (g) stimulus, using the Randall-Sellitto analgesymeter (Ugo Basile, Italy), fitted with a wedge-shaped probe.
Rats were orally dosed with vehicle, pregabalin, Compound I potassium salt and combination (Pregabalin+Compound I).

[5] = test system: Spinal nerve ligation (SNL) injury-induced neuropathic hyperalgesia in male SD rats; test: Spinal nerve ligation (SNL)-induced mechanical hyperalgesia; assay type: in vivo, rat (Sprague-Dawley); conditions: 0.5-4 h post-dose, Example 15, Table 18, FIG. 20
Protocol: Spinal nerve ligation (SNL) injury in rats induces neuropathic mechanical hyperalgesia in this Chung's model. Rats were anesthetized using ketamine/xylazine (40/5 mg/kg, i.p.) and a 2-3 cm longitudinal incision was made in the lumbar spinal region, 5-6 mm lateral to the midline and above the lower lumbar vertebrae and the rostral sacrum, exposing the paraspinal muscles on the left side. The paraspinal muscles were isolated using blunt-tipped scissors for exposing L6 transverse process. The L6 transverse process was cut with the help of blunt-tipped scissor to visualize the left L5 spinal nerves. The nerves were cleaned from adhering tissue and were tightly ligated using 7.0 silk sutures (EP 1.5, Pearsalls Ltd) (Somerset, UK). The wound was closed with muscle & skin sutures and Povidone-iodine solution was applied every day till complete healing. […] Mechanical hyperalgesia was assessed by measuring hind paw withdrawal to an increasing pressure (g) stimulus, using an analgesymeter (Ugo Basile, Italy) fitted with a wedge-shaped probe.
Mechanical hyperalgesia was assessed both pre- & post-dosing of drugs by measuring hind paw withdrawal thresholds. […] The post-dose paw withdrawal thresholds were measured at 0.5, 1, 2 & 4 h after oral administration. The % reversal of mechanical hyperalgesia was calculated as per standard procedure.

[6] = test system: Streptozotocin (STZ)-induced diabetic peripheral neuropathic hyperalgesia in male SD rats; test: Streptozotocin-induced diabetic peripheral neuropathic hyperalgesia; assay type: in vivo, rat (Sprague-Dawley)
Protocol: (§1) Streptozotocin (STZ)-induced neuropathic hyperalgesia in rats is a model to screen potential therapeutics for diabetic painful neuropathy in human patients. Streptozotocin was dissolved in freshly prepared cold citrate buffer (0.1 M, pH—4.4). Diabetes was induced in overnight fasted male SD rats (weighing 250-300 g) by a single intraperitoneal injection of Streptozotocin (Sigma, 55 mg/kg, i.p). […] On the day of the experiment (13th day after STZ injection) rats were assessed for mechanical hyperalgesia using Randall-Sellito paw pressure analgesymeter. Animals were weighed and grouped as described in Table 9.
Rats were orally dosed with vehicle, duloxetine hydrochloride, Compound I potassium salt and combination (Duloxetine+Compound I).
as §1, with “pH —4.4).” for “pH—4.4).”, “Sprague Dawley” for “SD”, “rats” for “rats (weighing 250-300 g)”, “analgesymeter.” for “analgesymeter. Animals were weighed and grouped as described in Table 9.”
Rats were orally dosed with vehicle, different doses of duloxetine hydrochloride, Compound II disodium salt and combinations (duloxetine+Compound II—simultaneously). The post-dose paw withdrawal thresholds were measured at 1, 2 & 4 h after oral administration. […] Animals were weighed and grouped as described in Table 16.
Rats were orally dosed with vehicle, different doses of duloxetine hydrochloride, Compound III disodium salt and combinations (duloxetine+Compound III—simultaneously). […] Animals were weighed and grouped as described in Table 21.

[7] = test system: motor coordination in rotarod test in male SD rats; test: Motor coordination in rotarod test; assay type: in vivo, rat (Sprague-Dawley)
Protocol: FIG. 9 is a bar graph that represents effect of Compound I (3 mg/kg), thiocolchicoside (0.01 mg/kg) and their combination on motor coordination in rotarod test in male SD rats.
FIG. 19 is a bar graph that represents effect of combination of thiocolchicoside (0.01 mg/kg) and Compound II (0.13 mg/kg) and their combination on motor coordination in rotarod test in male SD rats.

[8] = test system: FCA-induced thermal hyperalgesia in male SD rats; test: FCA-induced thermal hyperalgesia (Hargreaves apparatus); assay type: in vivo, rat (Sprague-Dawley); conditions: diclofenac sodium 6 mg/kg p.o. alone; 0.5-4 h post-dose; Example 16, Table 19, FIG. 22
Protocol: The % reversal of mechanical/thermal hyperalgesia was calculated.

## COc1ccc2cc([C@H](C)C(=O)O)ccc2c1 [naproxen]
[1]
  maximal % reversal of mechanical punctate allodynia: 18%
[2]; naproxen 3 mg/kg p.o. alone, Example 2, Table 3, FIG. 3
  maximal % reversal of hyperalgesia: 23%
[2]; naproxen 3 mg/kg p.o. alone, Example 10, Table 13, FIG. 14
  maximal % reversal of hyperalgesia: 18%
[2]; naproxen 3 mg/kg p.o. alone, Example 17, Table 20, FIG. 23
  maximal % reversal of mechanical hyperalgesia: 17%
[2]; naproxen 5 mg/kg p.o. alone, Example 2, Table 4, FIG. 4
  maximal % reversal of hyperalgesia: 32%
[3]; naproxen 10 mg/kg p.o. alone
  maximal % reversal of weight bearing deficit: 39%

## Cc1cnc(NC(=O)C2=C(O)c3ccccc3S(=O)(=O)N2C)s1 [meloxicam]
[2]; meloxicam 0.5 mg/kg p.o. alone, Example 4, Table 6, FIG. 6
  maximal % reversal of hyperalgesia: 21%
[2]; meloxicam 0.5 mg/kg p.o. alone, Example 11, Table 14, FIG. 15
  maximal % reversal of hyperalgesia: 19%

## CC(C)C[C@H](CN)CC(=O)O [pregabalin]
[4]; pregabalin 1 mg/kg p.o. alone
  maximal % reversal of hyperalgesia: 14%
[5]; pregabalin 1 mg/kg p.o. alone
  maximal % reversal of hyperalgesia: 20%

## CNCC[C@H](Oc1cccc2ccccc12)c1cccs1 [duloxetine hydrochloride]
[6]; duloxetine hydrochloride 3 mg/kg p.o. alone, 0.5-4 h post-dose, Example 7, Table 9, FIG. 10
  maximal % reversal of hyperalgesia: 23%
[6]; duloxetine hydrochloride 3 mg/kg p.o. alone, 0.5-4 h post-dose, Example 18, Table 21, FIG. 24
  maximal % reversal of hyperalgesia: 20%
[6]; duloxetine hydrochloride 3 mg/kg p.o. alone, 1, 2 & 4 h post-dose, Example 13, Table 16, FIG. 17
  maximal % reversal of hyperalgesia: 17%
[6]; duloxetine hydrochloride 10 mg/kg p.o. alone, Example 7, Table 10, FIG. 11
  maximal % reversal of hyperalgesia: 35%

## Cn1nc2c(c1CC(=O)N=c1scc(-c3ccc(F)c(C(F)(F)F)c3F)n1COP(=O)(O)O)c(=O)n(C)c(=O)n2C [Compound II, 4-(2,4-difluoro-3-(trifluoromethyl)phenyl)-2-((2-(2,5,7-trimethyl-4,6-dioxo-4,5,6,7-tetrahydro-2H-pyrazolo[3,4-d]pyrimidin-3-yl)acetyl)imino)thiazol-3 (2H)-yl)methyl dihydrogen phosphate]
[2]; Compound II 0.13 mg/kg p.o. alone, Example 9, Table 12, FIG. 13
  maximal % reversal of hyperalgesia: 21%
[2]; Compound II 0.13 mg/kg p.o. alone, Example 10, Table 13, FIG. 14
  maximal % reversal of hyperalgesia: 22%
[2]; Compound II 0.13 mg/kg p.o. alone, Example 11, Table 14, FIG. 15
  maximal % reversal of hyperalgesia: 14%
[2]; Compound II 0.13 mg/kg p.o. alone, Example 12, Table 15, FIG. 16
  maximal % reversal of hyperalgesia: 22%
[2]; Compound II 0.13 mg/kg p.o. alone, Example 14, Table 17, FIG. 18
  maximal % reversal of hyperalgesia: 14%
[7]; Compound II 0.13 mg/kg alone, n=8, Example 14, FIG. 19
  motor deficits (rotarod): did not produce any motor deficits
[6]; Compound II 0.04 mg/kg p.o. alone, 1, 2 & 4 h post-dose, Example 13, Table 16, FIG. 17
  maximal % reversal of hyperalgesia: 13%
[5]; Compound II 0.13 mg/kg p.o. alone
  maximal % reversal of hyperalgesia: 18%

## O=C(O)Cc1ccccc1Nc1c(Cl)cccc1Cl [diclofenac sodium]
[8]
  maximal % reversal of thermal hyperalgesia: 27%
[2]; diclofenac sodium 6 mg/kg p.o. alone, 0.5-4 h post-dose, Example 1, Table 1, FIG. 1
  maximal % reversal of hyperalgesia: 15%
[2]; diclofenac sodium 6 mg/kg p.o. alone, Example 9, Table 12, FIG. 13
  maximal % reversal of hyperalgesia: 14%
[2]; diclofenac sodium 6 mg/kg p.o. alone, Example 16, Table 19, FIG. 21
  maximal % reversal of mechanical hyperalgesia: 23%
[2]; diclofenac sodium 8 mg/kg p.o. alone, Example 1, Table 2, FIG. 2
  maximal % reversal of hyperalgesia: 39%

## COc1c(O[C@@H]2O[C@H](CO)[C@@H](O)[C@H](O)[C@H]2O)cc2c(c1OC)-c1ccc(SC)c(=O)cc1[C@@H](NC(C)=O)CC2 [thiocolchicoside]
[2]; thiocolchicoside 0.01 mg/kg p.o. alone, Example 6, Table 8, FIG. 8
  maximal % reversal of hyperalgesia: 15%
[2]; thiocolchicoside 0.01 mg/kg p.o. alone, Example 14, Table 17, FIG. 18
  maximal % reversal of hyperalgesia: 14%
[7]; thiocolchicoside 0.01 mg/kg alone, Example 6, FIG. 9
  motor deficits (rotarod): did not produce any motor deficits
[7]; thiocolchicoside 0.01 mg/kg alone, n=8, Example 14, FIG. 19
  motor deficits (rotarod): did not produce any motor deficits

## CC(=O)Nc1ccc(O)cc1 [paracetamol]
[2]; paracetamol 60 mg/kg p.o. alone, Example 5, Table 7, FIG. 7
  maximal % reversal of hyperalgesia: 28%
[2]; paracetamol 60 mg/kg p.o. alone, Example 12, Table 15, FIG. 16
  maximal % reversal of hyperalgesia: 17%

## Cn1c(=O)c2c(CC(=O)Nc3nc(-c4ccc(F)c(C(F)(F)F)c4F)cs3)csc2n(C)c1=O [Compound I, N-{4-[2,4-difluoro-3-(trifluoromethyl)phenyl]-1,3-thiazol-2-yl}-2-(1,3-dimethyl-2,4-dioxo-1,2,3,4-tetrahydrothieno[2,3-d]pyrimidin-5-yl)acetamide]
[4]; Compound I 3 mg/kg p.o. alone
  maximal % reversal of hyperalgesia: 22%
[2]; Compound I 1 mg/kg p.o. alone, Example 1, Table 2, FIG. 2
  maximal % reversal of hyperalgesia: 15%
[2]; Compound I 1 mg/kg p.o. alone, Example 2, Table 4, FIG. 4
  maximal % reversal of hyperalgesia: 10%
[2]; Compound I 3 mg/kg p.o. alone, 0.5-4 h post-dose, Example 1, Table 1, FIG. 1
  maximal % reversal of hyperalgesia: 21%
[2]; Compound I 3 mg/kg p.o. alone, Example 2, Table 3, FIG. 3
  maximal % reversal of hyperalgesia: 25%
[2]; Compound I 3 mg/kg p.o. alone, Example 4, Table 6, FIG. 6
  maximal % reversal of hyperalgesia: 21%
[2]; Compound I 3 mg/kg p.o. alone, Example 5, Table 7, FIG. 7
  maximal % reversal of hyperalgesia: 25%
[2]; Compound I 3 mg/kg p.o. alone, Example 6, Table 8, FIG. 8
  maximal % reversal of hyperalgesia: 17%
[3]; Compound I 1 mg/kg p.o. alone
  maximal % reversal of weight bearing deficit: 8%
[6]; Compound I 1 mg/kg p.o. alone, Example 7, Table 10, FIG. 11
  maximal % reversal of hyperalgesia: 10%
[6]; Compound I 3 mg/kg p.o. alone, 0.5-4 h post-dose, Example 7, Table 9, FIG. 10
  maximal % reversal of hyperalgesia: 26%
